Laboratory results as given in PMC9811578 (Chemical Science, 2022).
Non-standard residues stand in square brackets, D forms with d. Residues, ends and D or L forms follow the SMILES beside them.

What was measured:
[1] = R. Strutt and coworkers; cited from earlier work
Horizon-LBA = format: in vitro ADME; details: not told
PAMPA = format: in vitro ADME

SMILES: Cn1c(=O)c2c(ncn2C)n(C)c1=O [Caffeine]
- permeability coefficient (DIB of DOPC, UV detector) [1]: 2.81 ± 0.0920 × 10^−4 cm s^−1

SMILES: COc1ccc(C[C@@H]2NC(=O)[C@@H](CC(C)C)NC(=O)[C@H](C(C)C)NC(=O)[C@H](CC(C)C)NC(=O)[C@@H](CC(C)C)NC(=O)[C@H]3CCCN3C2=O)cc1 [Peptide 1] (cyclo(LV[dL]Y(Me)[dP][dL]))
- Papp (Horizon-LBA): 300 ± 100 ×10⁻⁶ cm/s
- Papp (PAMPA): 16.5 ± 0.9 ×10⁻⁶ cm/s
